Measurements as given in US20210382037A1, “IDENTIFICATION AND USE OF CYTOTOXIC T LYMPHOCYTE (CTL) ANTIGEN-SPECIFIC TARGET CELL KILLING ENHANCER AGENTS” (DANA-FARBER CANCER INSTITUTE, INC., priority 2017, published 2021).

Legend:
[1] = tested on: ID8-lucOS cells (OVA-expressing ID8 target cells) co-cultured with OT-I CD8+ T cells; assay: OT-I CTL assay, high-throughput compound screen and dose-response validation; assay type: cell-based, mouse; conditions: for effect on OT-I T cell killing of ID8-lucOS target cells, dose-response validation: dose-response curves; for effect on OT-I T cell killing of ID8-lucOS target cells, dose-response validation / effect on OT-I T cell-mediated target cell lysis (normalized firefly/renilla luciferase ratio relative to DMSO): 48 hr; for effect on OT-I T cell-mediated target cell lysis (normalized firefly/renilla luciferase ratio relative to DMSO): pilot screen, 1 μM, duplicate plates
Method: 10,000 ID8-lucOS and 10,000 ID8-rluc cells were plated in 1004, of cell culture media (DMEM+10% FBS+pen/strep) in solid white, flat-bottomed, tissue culture-treated 96-well plates (Thermo Fisher, Waltham, Mass.). Overnight-stimulated OT-I CD8^+ T cells were then added at the designated Effector:Target ratios with or without compounds in a total volume of 200 μL. Plates were incubated for 48 hr at 37° C. and 5% CO2. After 48 hr timepoint, 1004, of media was removed prior to dual-luciferase assay. Briefly: 504, of homemade Dual-Glo® luciferase buffer (Lu et al. Science 343: 305-309) was added to wells and incubated for 30 min before analysis of Firefly luminescence; then 504, of Dual-Glo® Stop & Glo® buffer was added, plates were incubated for 30 min, then analyzed for Renilla luminescence. An EnSpire plate reader (PerkinElmer, Waltham, Mass.) was used for quantification of luminescence. 203 compounds (listed above; details for LINCS kinase library can be found at lincs.hms.harvard.edu/db/sm/) were screened in high-throughput at 1 μM final concentration in duplicate, in 96-well plates in a first set that contained both OT-I CTLs and ID8 target cells and in a second set that contained ID8 target cells only. No compounds were placed in edge wells and all plates contained multiple DMSO control cells. Hits were calculated based on ΔΔCt method whereby ΔΔCt=(FLucDMSO/RLucDMSO)/(FLucCompound/RLucCompound) where values >1 were assessed as having augmented CTL killing, values ˜1 were assessed as having negligible immunomodulatory effect, and values <1 were assessed as having inhibited CTL killing. Hits from the high-throughput screen were validated with dose response curves using the indicated drug concentrations.
For development of the OT-I IO assay, the ID8 murine serous ovarian carcinoma cell line was utilized due to its constitutive expression of MHC class-I, MHC haplotype compatibility with C57BL/6J mice, and dramatic IFN-γ-induced upregulation of PD-L1 (FIG. 10A and FIG. 10B). ID8s were transduced with pLVX vectors to express either firefly luciferase and OVA model antigen (“lucOS”) or renilla luciferase and no model antigen (“rluc”) (FIG. 2A). Target ID8 cell lines were mixed at a 1:1 ratio and co-cultured with CD8+ T cells isolated from the spleens of OT-I TCR-transgenic mice; OT-I mice express transgenic TCRα-V2 and TCRβ-V5 genes such that all CD8+ T cell receptors recognize chicken ovalbumin residues 257-264 ([…]) in the context of H-2Kb (Hogquist et al., 1994 Cell, 76:17-27). Target cell-T cell cultures were incubated with compounds for 48 hr and then analyzed by dual-luciferase assay whereby changes in firefly signal relative to controls indicated modulation of T cell killing by compound treatment (FIG. 2B and FIG. 2C).
A high-throughput assay capable of identifying test compounds that specifically impaired or enhanced CD8^+ T cell-mediated killing of target ID8-lucOS “clone B9” cells in an antigen-specific manner was developed, as depicted in FIG. 2B. In such assays, a 96-well tissue culture plate array format was employed, and in each well, 10,000 ID8-lucOS and 10,000 ID8-rluc were co-plated. […] The OT-I assay was then performed as a high-throughput screen (FIG. 2C) to evaluate test compounds for immunomodulatory effects upon antigen-specific tumor cell killing by cytotoxic T lymphocytes (CTLs). Inclusion of ID8-lucOS and ID8-rluc in each well of the array-formatted test compound assay provided in-plate normalization controls, which allowed for identification of test compounds that effected non-specific growth inhibition or induction of apoptosis, versus identification of modulation by screen compounds of antigen-specific tumor cell killing by cytotoxic T lymphocytes. Such high-throughput screening was performed under standard ID8 cell growth conditions (37° C. and 5% 02) for initial rounds of test compound screening. […]

[2] = tested on: IFN-γ secretion by OT-I CD8+ T cells; assay: OT-I IFN-γ ELISA; assay type: cell-based, mouse; conditions: supernatants at 48 hr; 100, 50, 10, 5, 1 nM; E:T 1:1 and 2:1
Method: The supernatants from OT-I CTL assays, as described above, were harvested at the 48 hr timepoint prior to dual luciferase assay and analyzed for IFN-γ secretion by LEGEND MAX™ Mouse IFN-γ ELISA Kit (Biolegend, San Diego, Calif.) according to the manufacturer's protocol. […] Conditions were assayed with four replicate wells per experiment.
Cell culture media from the OT-I IO assay was harvested from wells following 48 hr of culture with a range of EGFR inhibitors and the JAK2 inhibitor AZD-1480 and assessed for IFN-γ levels by ELISA. Secretion of IFN-γ was used as a proxy for OT-I T cell effector function. […] None of the EGFR inhibitors affected IFN-γ secretion, leading to the conclusion that the immunomodulatory effect of EGFR inhibition in the assay was not due to T cell-intrinsic effects.

[3] = molecular target: chicken ovalbumin residues 257-264 (SIINFEKL) in the context of H-2Kb, presented on ID8-lucOS cells (mouse; chicken); assay: cell-based or functional assay
MC38 colon cancer cells = assay type: in vivo; conditions: log-rank Mantel-Cox
Method: C57BL/6J stock #000664 mice (Jackson labs, Bar Harbor, Me.) were challenged subcutaneously with 500,000 MC38 colon cancer cells on their flanks and “enrolled” on-study when tumors reached 50 mm^3. […] Depleting aCD8α was administered two days prior to first aPD-1 treatment. Mice used in experiments were 7-8 weeks of age at time of tumor challenge. Endpoint was considered to be when tumors reached a size of 2000 mm^3 or as mandated by institutional guidelines due to development of necrotic lesions.
Specifically, for each of the experiments, C57BL/6J mice were challenged subcutaneously with 500,000 MC38 colon cancer cells on their flanks and “enrolled” on-study when tumors reached 50 mm^3. […] Flank tumor growth curves were analyzed using two-way ANOVA, bar graphs were analyzed using unpaired Student's t-test, and survival experiments used the log-rank Mantel-Cox test for survival analysis, all indicated with *p<0.05; **p<0.01; ***p<0.001.

[4] = tested on: MHC class-I (H-2K^b) on ID8 tumor cells; assay: Flow cytometry of MHC class-I expression, ID8; assay type: cell-based, mouse; conditions: 100 nM, 48 hr, vs DMSO; for basal expression of MHC class-I by ID8 tumor cells: no IFN-γ; for MHC class-I expression induced by physiological levels of IFN-γ, ID8 tumor cells: with recombinant mouse IFN-γ
Method: 100,000 ID8-lucOS, ID8-lucOS sgEGFR KO, Kras^G12D;p53^−/−, and MC38 cell lines were cultured in 12-well plates in 2 mL of culture media (DMEM+10% FBS+pen/strep) alone or supplemented with 4 ng/mL recombinant mouse IFN-γ (Biolegend, San Diego, Calif.) for 48 hr. […] Data were analyzed using FlowJo (Ashland, Oreg.) software version 10.0.9.

[5] = tested on: OVA-expressing KP cells (Kras^G12D/p53^−/− lung adenocarcinoma) co-cultured with OT-I CD8+ T cells; conditions: KP-Cas9 lucOS cells co-cultured with OT-I CD8+ T cells
Text: The KP cell line was transduced with the same vectors to stably express Cas9 and the lusOS construct and co-cultured with OT-I CD8+ T cells.

r/m SCCHN = r/m SCCHN patients; cited from earlier work

O=C1Nc2ccccc2/C1=C1/Nc2ccccc2C1=O [indirubicin]
effect on OT-I T cell killing of ID8-lucOS target cells, dose-response validation [1]: only mildly immunomodulatory

Cc1cc(Nc2nc(N[C@@H](C)c3ncc(F)cn3)ncc2Cl)n[nH]1 [AZD-1480]
effect on OT-I T cell killing of ID8-lucOS target cells, dose-response validation [1]: significantly inhibited T cell killing
effect on OT-I T cell-mediated target cell lysis (normalized firefly/renilla luciferase ratio relative to DMSO) [1]: inhibited T cell-mediated target cell lysis
IFN-γ secretion (ELISA) [2]: significantly inhibited IFN-γ secretion in a dose-dependent manner

OT-I transgenic T cell receptor (TCRα-V2 / TCRβ-V5) on OT-I CD8+ T cells
% killing of OVA-expressing ID8-lucOS target cells (dual-luciferase assay, 48 hr) [3]: 50 % killing

CN(C)C/C=C/C(=O)Nc1cc2c(Nc3ccc(F)c(Cl)c3)ncnc2cc1O[C@H]1CCOC1 [afatinib]
survival relative to controls (MC38 colon cancer cells): none
lysis of OVA-expressing ID8 target cells ([1]; concentrations down to 10 nM): lysis of almost all OVA-expressing ID8 target cells
effect on OT-I T cell killing of ID8-lucOS target cells, dose-response validation [1]: significantly augmented OT-I T cell killing
basal expression of MHC class-I by ID8 tumor cells [4]: significantly increased
MHC class-I expression induced by physiological levels of IFN-γ, ID8 tumor cells [4]: significantly increased
OT-I T cell-mediated lysis of OVA-expressing KP cells [5]: significantly enhanced
reported ORR to monotherapy (r/m SCCHN): 10%
IFN-γ secretion (ELISA) [2]: did not appear to exert any enhancing effect

COc1cc(OC)c(/C=C/S(=O)(=O)Cc2ccc(OC)c(NCC(=O)O)c2)c(OC)c1 [Rigosertib]
effect on OT-I T cell-mediated target cell lysis (normalized firefly/renilla luciferase ratio relative to DMSO) [1]: inhibited T cell-mediated target cell lysis

C=CC(=O)Nc1cc(Nc2nccc(-c3cn(C)c4ccccc34)n2)c(OC)cc1N(C)CCN(C)C [osimertinib]
effect on OT-I T cell killing of ID8-lucOS target cells, dose-response validation [1]: modestly enhanced killing

O=C1Nc2cc(Br)ccc2C1=C1Nc2ccccc2C1=O [6-bromoindirubin]
effect on OT-I T cell killing of ID8-lucOS target cells, dose-response validation [1]: only modestly augmented T cell killing
effect on OT-I T cell-mediated target cell lysis (normalized firefly/renilla luciferase ratio relative to DMSO) [1]: significantly augmented T cell killing

O=c1sn(-c2cccc3ccccc23)c(=O)n1Cc1ccccc1 [tideglusib]
effect on OT-I T cell killing of ID8-lucOS target cells, dose-response validation [1]: only mildly immunomodulatory

CN1C(=O)c2ccccc2N(C)c2nc(Nc3ccc(N4CCC(O)CC4)cc3)ncc21 [XMD-12-1]
effect on OT-I T cell-mediated target cell lysis (normalized firefly/renilla luciferase ratio relative to DMSO) [1]: inhibited T cell-mediated target cell lysis

COc1cc2ncnc(Nc3ccc(F)c(Cl)c3)c2cc1OCCCN1CCOCC1 [gefitinib]
effect on OT-I T cell killing of ID8-lucOS target cells, dose-response validation [1]: significantly augmented OT-I T cell killing
basal expression of MHC class-I by ID8 tumor cells [4]: significantly increased
MHC class-I expression induced by physiological levels of IFN-γ, ID8 tumor cells [4]: significantly increased
OT-I T cell-mediated lysis of OVA-expressing KP cells [5]: significantly enhanced
IFN-γ secretion (ELISA) [2]: did not appear to exert any enhancing effect

C#Cc1cccc(Nc2ncnc3cc(OCCOC)c(OCCOC)cc23)c1 [erlotinib]
effect on OT-I T cell killing of ID8-lucOS target cells, dose-response validation [1]: confirmed to augment T cell-mediated tumor cell lysis
effect on OT-I T cell-mediated target cell lysis (normalized firefly/renilla luciferase ratio relative to DMSO) [1]: significantly augmented T cell killing
basal expression of MHC class-I by ID8 tumor cells [4]: significantly increased
MHC class-I expression induced by physiological levels of IFN-γ, ID8 tumor cells [4]: significantly increased
OT-I T cell-mediated lysis of OVA-expressing KP cells [5]: significantly enhanced
IFN-γ secretion (ELISA) [2]: did not appear to exert any enhancing effect

pembrolizumab
reported ORR to monotherapy (r/m SCCHN): 16%

CC(C)(C)c1cnc(CSc2cnc(NC(=O)C3CCNCC3)s2)o1 [SNS-032]
effect on OT-I T cell-mediated target cell lysis (normalized firefly/renilla luciferase ratio relative to DMSO) [1]: inhibited T cell-mediated target cell lysis

O=C(O)c1ccc(Nc2ncc3c(n2)-c2ccc(Cl)cc2C(c2c(F)cccc2F)=NC3)cc1 [MLN8054]
effect on OT-I T cell-mediated target cell lysis (normalized firefly/renilla luciferase ratio relative to DMSO) [1]: inhibited T cell-mediated target cell lysis
